Literature values in patent US20250216408A1, “REAGENT COMBINATION AND METHOD FOR DETECTING TARGET IMMUNOSUPPRESSANT IN WHOLE BLOOD WITHOUT CENTRIFUGATION” (Shenzhen New Industries Biomedical Engineering co., Ltd., priority 2023, published 2025).

How the values were obtained:
[1] = FK506 in plasma

| SMILES | Plasma protein binding rate [1] | Share of drug in whole blood taken up by / present in / bound to red blood cells |
| --- | --- | --- |
| C=CC[C@@H]1/C=C(\C)C[C@H](C)C[C@H](OC)[C@H]2O[C@@](O)(C(=O)C(=O)N3CCCC[C@H]3C(=O)O[C@H](/C(C)=C/[C@@H]3CC[C@@H](O)[C@H](OC)C3)[C@H](C)[C@@H](O)CC1=O)[C@H](C)C[C@@H]2OC [FK506, tacrolimus] | over 98% | 75%-80% |
| CO[C@H]1C[C@@H]2CC[C@@H](C)[C@@](O)(O2)C(=O)C(=O)N2CCCC[C@H]2C(=O)O[C@H]([C@H](C)C[C@@H]2CC[C@@H](O)[C@H](OC)C2)CC(=O)[C@H](C)/C=C(\C)[C@@H](O)[C@@H](OC)C(=O)[C@H](C)C[C@H](C)/C=C/C=C/C=C/1C [sirolimus] | – | 95% |
